# Test results taken from PMC12677653, “Inhibition of Tumor Lipogenesis and Growth by Peptide‐Based Targeting of SREBP Activation” (Advanced Science, 2025).
# Columns and labels:
# Type in all cases: cell-based, human
# [1] = system: SREBP1/SREBP2 target genes; test: Quantitative PCR of SREBP target genes in Huh7 cells; settings: peptide 15 μM, IGF1 100 ng/mL 10 h, qPCR, n = 3
# Protocol: Figure 1 The Insig1/2 loop 1 peptide binds to S90‐phosphorylated PCK1 and blocks PCK1‐mediated SREBP activation and tumor cell proliferation. Immunoblotting analyses were performed using the indicated antibodies; representative results from three independent experiments are shown (IP, immunoprecipitation; WB, western blot). a) Huh7 cells expressing various Insig1 (top) or Insig2 (bottom) truncation mutants were treated with or without IGF1 (100 ng mL^−1) for 1 h. b,c) Biolayer interferometry assays (Sartorius Octet) were employed to measure the binding affinity of Insig1/2 loop 1 peptide to GST‐PCK1 or GST‐PCK1 pS90 proteins. Data represent three independent experiments. d) Flag‐PCK1‐expressing Huh7 cells were pretreated with Insig1/2 loop 1 peptide (15 µM) for 1 h before IGF1 (100 ng mL^−1) stimulation. e) Huh7 cells were pretreated with low (7.5 µM) or high (15 µM) concentrations of Insig1/2 loop 1 peptide for 1 h before IGF1 (100 ng mL^−1) stimulation. f) Huh7 cells transiently transfected with β‐galactosidase and SRE‐driven luciferase reporter vectors were pretreated with Insig1/2 loop 1 peptide (15 µM) for 1 h, followed by stimulation with or without IGF1 (100 ng mL^−1) for 14 h. SRE luciferase activity was normalized to β‐galactosidase activity. Data represent the mean ± SD (n = 3). Statistical significance was determined by one‐way analysis of variance (ANOVA). g) Following pretreatment with Insig1/2 loop 1 peptide (15 µM) and IGF1 stimulation (100 ng mL^−1, 8 h), Huh7 cells were subjected to immunofluorescence analysis (scale bar: 10 µm). h) Quantitative PCR analysis of SREBP1 target gene GPAM in Huh7 cells pretreated with Insig1/2 loop 1 peptide (15 µM) and stimulated with IGF1 (100 ng mL^−1) for 10 h. Data represent the mean ± SD (n = 3). Statistical significance was determined by one‐way analysis of variance (ANOVA). i) Quantitative PCR analysis of SREBP1 target gene FASN in Huh7 cells pretreated with Insig1/2 loop 1 peptide (15 µM) and stimulated with IGF1 (100 ng mL^−1) for 10 h. Data represent the mean ± SD (n = 3). Statistical significance was determined by one‐way analysis of variance (ANOVA). j) Intracellular triglyceride (TG) content was quantified in Huh7 cells pretreated with Insig1/2 loop 1 peptide (25 µM) and stimulated with IGF1 (100 ng mL^−1) for 24 h. […] Statistical significance was determined by one‐way analysis of variance (ANOVA). k) Cell proliferation was assessed by automated cell counting after 72 h of IGF1 stimulation (100 ng mL^−1) in Huh7 cells pretreated with Insig1/2 loop 1 peptide (25 µM) for 1 h. […] Statistical significance was determined by one‐way analysis of variance (ANOVA). l) FLAG‐Insig1, Flag‐Insig1 S207A or FLAG‐ Insig1 S207D was expressed in Huh7 cells with depletion of Insig1 by expressing Insig1 shRNA. […]
# [2] = system: Insig1 S207 phosphorylation; test: Immunoblot of Insig1 S207 phosphorylation, HCT116; settings: HCT116 cells, peptide 15 μM 1 h before IGF1 100 ng/mL
# Protocol: Cellular proteins were extracted using ice‐cold lysis buffer [50 mM Tris‐HCl (pH 7.5), 150 mM NaCl, 0.1% SDS, 1% Triton X‐100, 1 mM DTT, 0.5 mM EDTA] supplemented with protease inhibitor cocktail (Roche) and phosphatase inhibitors (Bimake). Following lysis, cell extracts were centrifuged at 13400 × g for 15 min at 4 °C to remove cellular debris. The clarified supernatants were then incubated with primary antibodies overnight at 4 °C with gentle rotation. For Flag‐tagged protein immunoprecipitation, Flag M2 magnetic beads (Sigma) were added to the lysate‐antibody mixture and incubated for an additional 4 h at 4 °C. The immunocomplexes were washed three times with lysis buffer under stringent conditions (5 min per wash with rotation). Finally, the precipitated proteins were eluted and analyzed by immunoblotting as previously described.^[ [35] ^]
# h) HCT116 cells were pretreated with Insig1/2 loop1 peptide (15 μM) for 1 h before IGF1 (100 ng ml⁻¹) stimulation.
# [3] = system: Hep3B cells; test: Triglyceride (TG) detection assay, Hep3B; settings: peptide 25 μM, IGF1 100 ng/mL 24 h, n = 3
# Protocol: Cells were harvested and processed for triglyceride (TG) quantification using the Amplex Red Triglyceride Assay Kit (Beyotime, Catalog No. S0129S) according to the manufacturer's instructions. Briefly, collect 1 million cells and add 200 µL of isopropanol. Centrifuge at 12 000 × g for 3–5 min at 4 °C, and collect the supernatant for subsequent analysis. Dilute the supernatant tenfold with assay buffer, and then add 50 µL of the diluted sample to a 96‐well black plate, add 2 µL of lipase, and mix thoroughly. Incubate at 37 °C for 20 min. Then, add 50 µL of the triglyceride detection working solution and mix well, incubate at 37 °C for 60 min in the dark. Set the excitation wavelength to 560 nm and the emission wavelength to 590 nm to measure the fluorescence intensity.
# f) Intracellular triglyceride (TG) content was quantified in Hep3B cells pretreated with Insig1/2 loop 1 peptide (25 μM) and stimulated with IGF1 (100 ng ml⁻¹) for 24 h.
sequence,measurement,setting,value
RKKRRQRRRLYPCIDSHLGEPHKFKRE [Insig1/2 loop 1 peptide],SREBP2-mediated expression of HMGCS1,[1],suppressed
same,SREBP2-mediated expression of LDLR,[1],suppressed
same,expression of FASN,[1],markedly inhibited
same,expression of GPAM,[1],markedly inhibited
same,Insig1 S207 phosphorylation,[2],inhibited
same,IGF1-induced increase in triglycerides (TGs),[3],reduced
